According to US4798828A, “Heterocyclic-methylene-penems” (Beecham Group p.l.c., priority 1984, dated 1989):
Values after ≈ are worked out from the molar mass of the structure shown.

How the values were obtained:
Assay in all cases: Antibacterial activity of compounds alone (MIC)
Assay type in all cases: cell-based
Details in all cases: compound alone, amoxycillin: typical MIC's from a number of tests, read-out: MIC (minimum inhibitory concentration)
E aerogenes N1 = system: E aerogenes N1
Source text: (§1) The following Table 1 summaries the antibacterial activity of selected compounds according to the invention (which are identified by compound numbers as given in the examples) against selected micro-organisms and, for comparison purposes, also gives the same data for amoxycillin. The data is given in the form of MIC values (minimum inhibitory concentration)in μg/ml.

P mirabilis C889 = system: P mirabilis C889
Source text: as §1

E coli JT410 = system: E coli JT410
Source text: as §1

C freundii Mantio = system: C freundii Mantio
Source text: as §1

MIC (E aerogenes N1) [µg/mL] | MIC (P mirabilis C889) [µg/mL] | MIC (E coli JT410) [µg/mL] | MIC (C freundii Mantio) [µg/mL] | SMILES
> 512 | 256 | > 512 | > 512 | Cc1nc(/C=C2/C(=O)N3C(C(=O)O)=CSC23)co1 (racemic) [Compound 78, (5RS) Sodium (Z)-6-[(2-methyloxazol-4-yl)methylene]penem-3-carboxylate]
512 | 256 | 512 | 256 | Cn1ccc(/C=C2/C(=O)N3C(C(=O)O)=CSC23)n1 (racemic) [Compound 169, (5RS) Sodium (Z)-6-(1-methylpyrazol-3-ylmethylene)penem-3-carboxylate]
256 | 64 | 32 | 64 | Cn1cc(/C=C2/C(=O)N3C(C(=O)O)=CS[C@H]23)nn1 [Compound 158, (5R) Sodium (Z)-6-(1-methyl-1,2,3-triazol-4-ylmethylene) penem-3-carboxylate]

The remaining lines, values behind:

SMILES | MIC (E aerogenes N1) [µg/mL] | MIC (P mirabilis C889) [µg/mL] | MIC (E coli JT410) [µg/mL] | MIC (C freundii Mantio) [µg/mL]
Cn1cc(/C=C2/C(=O)N3C(C(=O)O)=CSC23)nn1 (racemic) [88(a), (5RS) Sodium (Z)-6-(1-methyl-1,2,3-triazol-4-yl-methylene)penem-3-carboxylate] | 128 | 128 | 64 | 128
O=C(O)C1=CSC2/C(=C\c3ccns3)C(=O)N12 (racemic) [Compound 11, (5RS) Sodium (Z)-6-(5-Isothiazolylmethylene)penem-3-carboxylate] | > 100 | > 100 | > 100 | > 100
O=C(O)C1=CSC2/C(=C\c3ccon3)C(=O)N12 (racemic) [Compound 43, (5RS) Sodium (Z)-6-(Isoxazol-3-ylmethylene)penem-3-carboxylate] | > 512 | 256 | > 512 | 256
CC1(C)S[C@@H]2[C@H](NC(=O)[C@H](N)c3ccc(O)cc3)C(=O)N2[C@H]1C(=O)O [Amoxycillin, reference compound] | 512 (≈ 1400 µM) | > 512 | 256 (≈ 701 µM) | > 512
